According to the NIST ThermoML archive (doi:10.1016/j.jct.2017.06.018):

Settings: Liquid, Closed cell (Static) method

C=C(F)C(F)(F)F [2,3,3,3-tetrafluoro-1-propene]
Settings | vapor or sublimation pressure [kPa]
243.15 K | 99.4
248.15 K | 123.2
253.15 K | 151.4
258.15 K | 184.2
263.15 K | 222.4
268.15 K | 266.9
273.15 K | 317.2
278.15 K | 374.4
283.15 K | 438.5
288.15 K | 511.9
293.15 K | 591.7
